Results reported in patent US12616750B2, “Combination therapy utilizing DNA alkylating agents and ATR inhibitors” (Merck Patent GmbH, priority 2018, dated 2026).

Experiments:
SK-BR-3 cells = experiment: MNED curve-shift assay; type: cell-based
Description: (§1) Therefore a curve-shift assay system was established. In a first step, a dose-response curve (DRC) is obtained by treating a certain cell line with an inhibitor. The maximum non-efficacious dose (MNED) can be derived from this DRC. MNED is the highest dose, that can be added to a certain cell line without affecting the viability. The activity of the ADC is confirmed in a separate experiment. Finally, a combination experiment can be conducted. Therefore, the ADC and ADC plus inhibitor at MNED are added to the cells. The inhibitor is tested in parallel at MNED as a control. Due to the application of inhibitor at MNED, no reduction in cell viability caused by the inhibitor is expected. Three outcomes are possible: 1) The combination of ADC plus inhibitor is equipotent as the ADC only. […] Such a result would be interpreted as depotentiation. […] In this case, the potency of the ADC is potentiated.
(§2) Potentiation effects are expressed as dose-reduction indices (DRI), which can be calculated by dividing the IC50-value of ADC by the IC50-value of ADC plus inhibitor according to eq. 1
(§3) Curve-shift assays were conducted as follows: The cell number and viability was determined using ViCell™-XR (Beckman Coulter) and seeded in opague 96-well plate (10k viable cells/well). After seeding, the plate was incubated (37° C., 5% C02) in a humid chamber overnight. Compounds were diluted in the appropriate medium, added to the cells and the plate was incubated (37° C., 5% CO2, 6 d) in a humid chamber. After 30 min equilibration at room temperature, CellTiter-Glo reagent (Promega) was added. After the plate was shaken (3 min, 550 rpm, rt) it was incubated (10 min, rt) and luminescence was read on a synergy 4 plate reader (BioTek). Evaluation was performed using GraphPad Prism version 6.05. Therefor luminescence values were normalized to luminescence values of non-treated cells and dose-response was fitted with 4-point logistic fit.
(§4) The determination of dose-reduction indices (DRI) in a maximum non-efficacious dose (MNED) curve-shift assay is a 3-step process as depicted exemplarily in FIG. 13. The cytotoxicity of the ADC is confirmed in a cell viability assay in an initial step. […] In the second step. the MNED of the ATRi was determined. […] In order to obtain a full […] for the combination, the starting concentration of the ADC was lowered compared to the experiment in step 1.

HCC-1954 cells [1] = experiment: MNED curve-shift assay; type: cell-based; details: HCC-1954
Description: as §1, §2, §3, §4

BT-474 cells = experiment: MNED curve-shift assay; type: cell-based
Description: as §1, §2, §3, §4

MDA-MB-361 cells = experiment: MNED curve-shift assay; type: cell-based
Description: as §1, §2, §3, §4

Calu-3 cells = experiment: MNED curve-shift assay; type: cell-based
Description: as §1, §2, §3, §4

MDA-MB-468 cells [2] = experiment: MNED curve-shift assay; type: cell-based
Description: as §1, §2, §3, §4

SK-OV-3 cells = experiment: MNED curve-shift assay; type: cell-based
Description: as §1, §2, §3, §4

MDA-MB-453 cells [3] = experiment: MNED curve-shift assay; type: cell-based
Description: as §1, §2, §3, §4

JIMT-1 cells = experiment: MNED curve-shift assay; type: cell-based
Description: as §1, §2, §3, §4

NCI-N87 xenografts = experiment: Xenograft experiment, therapeutic efficacy; details: single agent: αHER2-6 1.0 mg/kg i.v. single dose; ATRi 50 mg/kg per oral once daily 14 d
Protocol: Female H2d Rag2 mice, 6-8 weeks old, were obtained from Taconic Biosciences, LLC. A xenograft was established by harvesting NCI-N87 cells from cell culture, mixing the cells 1:1 with Matrigel and injecting 2.5×10^6 cells subcutaneously into the flank of the mice. The tumor volume was assessed twice weekly by length measurements in two dimensions using calipers. The volume was calculated following eq. 3 where the length L is the longest tumor length and W is the shortest tumor length.
After an initial tumor growth phase, mice were randomized and assigned to treatment groups comprising 10 animals. The initial tumor volume amounted to approximately 100 mm^3 when treatment started. Vehicle treated mice obtained a solution of 0.5% Methocel, 0.25% Tween-20 in water. […] Mice were weighted twice weekly to assess the body-weight during the treatment period. The criteria to terminate the study for single animals were skin ulcerations, tumor length exceeding 15 mm or tumor exceeding 10% of the body weight. In addition, body weight loss was a criterium for termination if body weight loss exceeded 20% accompanied with a haggard appearance, body weight loss exceeded 20% on three successive days or if body weight loss exceeded 25% of the adjusted body weight.

HCC-1954 cells [4] = experiment: Dose-matrix combination assay (synergy score, Loewe model); type: cell-based; details: combination with DUBA
MDA-MB-468 cells [5] = experiment: as above; type: cell-based; details: combination with DUBA; MDA-MB-468, 6 d; S ± SD; cutoff ±1
[6] = Xenograft experiment, tolerability (body weight); design: species or system H2d Rag2 mice; details: mouse, in vivo
Protocol: The tolerability of the anti-cancer treatment was assessed considering the overall condition of the animal as well as body-weight changes of the mice (FIG. 22).

NCI-N87 cells = experiment: Dose-matrix combination assay (synergy score, Loewe model); type: cell-based; details: NCI-N87
MDA-MB-453 cells [7] = experiment: as above; type: cell-based; details: MDA-MB-453

C[C@@H]1COCCN1c1cc(C2(S(C)(=N)=O)CC2)nc(-c2ccnc3[nH]ccc23)n1 (stereo partly drawn) [AZD6738, 4-{4-[(3R)-3-methylmorpholin-4-yl]-6-[1-(S-methylsulfonimidoyl)cyclopropyl]pyrimidin-2-yl}-1H-pyrrolo[2,3-b]pyridine]
MNED (maximum non-efficacious dose) (SK-BR-3 cells): 150 nM | MNED (maximum non-efficacious dose) (HCC-1954 cells [1]): 250 nM | MNED (maximum non-efficacious dose) (BT-474 cells): 1000 nM | MNED (maximum non-efficacious dose) (MDA-MB-361 cells): 111 nM | MNED (maximum non-efficacious dose) (Calu-3 cells): 400 nM | MNED (maximum non-efficacious dose) (MDA-MB-468 cells [2]): 300 nM | MNED (maximum non-efficacious dose) (SK-OV-3 cells): 150 nM | MNED (maximum non-efficacious dose) (MDA-MB-453 cells [3]): 111 nM | MNED (maximum non-efficacious dose) (JIMT-1 cells): 80 nM | tumor response (tumor volume) (NCI-N87 xenografts): not statistically different from the vehicle-treated group | Synergy score S (HCC-1954 cells [4]; HCC-1954, 6 d, S ± SD, cutoff ±1): 6.9±0.7 | Synergy score S (HCC-1954 cells [4]; cell line not given (screen on HCC-1954 or MDA-MB-468)): 7.6 | additional cancer cells killed versus additive (Loewe) prediction (HCC-1954 cells [4]; hotspot 160 to 630 nM AZD6738 and 0.16 to […] DUBA): up to 69% | Synergy score S (MDA-MB-468 cells [5]): 5.7±1.0 | tolerability (conclusion) [6]: well tolerated | Synergy score S (NCI-N87 cells; combination with ADC αHER2-2): 3.7±0.7 | Synergy score S (NCI-N87 cells; combination with ADC αHER2-6): 3.0±0.05 | Synergy score S (MDA-MB-453 cells [7]; combination with ADC αHER2-2): 9.1±2.1 | Synergy score S (MDA-MB-453 cells [7]; combination with ADC αHER2-6): 9.5±0.9
